In PubChem BioAssay AID1996:
In brackets after ≈: the same amount, converted by molar mass.

conditions: buffer; pH 7.4; 200.0 µM

Row | Compound | solubility kinetic [µg/mL]
1 | Cc1ccc2c(C)c(C(=O)N(C)Cc3nccn3C)oc2c1C | > 46.7
2 | Cc1ccc(CN2CCN(c3ccccc3)CC2)o1.O=C(O)C(=O)O | 49.1
3 | O=C(O)C1CCCN1C1=NS(=O)(=O)c2ccccc21 (centres undefined) | > 42
4 | Fc1cccc(NC(=S)Nc2cccnc2)c1 | > 37.1
5 | O=C(Nc1nc2cc3c(cc2s1)OCO3)C1CCCCC1 | < 0.3
6 | CCCn1nc(C(=O)NC2CC2)c2ccccc2c1=O | > 40.7
7 | COc1ccccc1OCCC(=O)OCC(=O)NCc1ccc(Cl)cc1 | 3.4 (≈ 9 µM)
8 | Cc1ccc2c(c1)N(CC(=O)N1CCOCC1)C(=O)C(C)O2 (centres undefined) | 39.6 (≈ 130 µM)
9 | COc1ccc(C(=O)NCC(c2ccco2)N2CCOCC2)cc1OC (centres undefined) | > 54.1
10 | Cc1cccc2c3nc4ccccc4nc3n(C)c12 | < 0.2
11 | c1ccc2[nH]c(-c3cnco3)cc2c1 | 21.6 (≈ 117 µM)
12 | CN1CCCN(C(=O)c2cc3c(s2)CCCC3)CC1 | 39.7 (≈ 143 µM)
13 | COc1ccccc1/C(C)=N/Oc1cc(N)cc([N+](=O)[O-])c1 | 1.7 (≈ 5.64 µM)
14 | CC1CCCCC1NC(=S)NC(=O)c1ccccc1Cl (centres undefined) | 1.6 (≈ 5.15 µM)
15 | Cc1ccc(-c2csc3ncn(C(C)C(=O)O)c(=O)c23)cc1 (centres undefined) | > 47.2
16 | Cc1ccc(N2C(=O)CN(Cc3ccccc3)C2=S)cc1C | 0.3 (≈ 0.966 µM)
17 | COCCn1c(=O)[nH]c2cc(C(=O)Nc3cccc(F)c3)ccc2c1=O | 6.2 (≈ 17.4 µM)
18 | CCC(=O)OC1(c2ccccc2)C(C)CN(C)CC1C.Cl (centres undefined) | > 46.8
19 | CN(CC(=O)N1CCc2ccccc2C1)c1ccccc1 | > 42.1
20 | CN1C(=S)SC(C)(C)C1N(O)C(=O)Nc1ccc(Cl)cc1 (centres undefined) | 4.2 (≈ 12.1 µM)

Row | Compound | solubility kinetic [µg/mL]
21 | C/C(Cl)=C/Cc1c(C)[nH]c2c(ccc3ccccc32)c1=O | < 0.6
22 | O=C(CCNC(=O)c1ccco1)Nc1ccc(OC(F)F)cc1 | 43.6 (≈ 134 µM)
23 | CC(=O)N/C(=N\c1nc(C)cc(C)n1)Nc1ccccc1Cl | 0.5 (≈ 1.57 µM)
24 | Brc1ccc(-c2ncc3ccccn23)cc1 | 29.3 (≈ 107 µM)
25 | COc1cc2c(C(=O)O)c(C)n(C)c2c2ccccc12 | 7.4 (≈ 27.5 µM)
26 | CC(=O)Nc1ccccc1OC(C)C(=O)N1CC(C)CC(C)C1 (centres undefined) | > 47.8
27 | COC(=O)c1cc(C)ccc1OCc1ccc([N+](=O)[O-])cc1 | < 0.6
28 | O=C(COc1cccnc1[N+](=O)[O-])Nc1cccc2ccccc12 | 22.7 (≈ 70.2 µM)
29 | CC(=O)Nc1ccc2sc(NC(=O)CN3CCOCC3)nc2c1 | > 50.2
30 | Cc1c(Cl)cccc1NC(=O)C1COc2ccccc2O1 (centres undefined) | 30.6 (≈ 101 µM)
31 | CCOc1ccc(NC(=O)c2cc(Cl)nc3ccccc23)cc1 | 0.4 (≈ 1.22 µM)
32 | CCS(=O)(=O)c1ccc2c(c1)NC(=O)C(CCO)O2 (centres undefined) | 40.4 (≈ 142 µM)
33 | OC(C#CCN1CCCCCC1)(c1ccccc1)c1cccnc1 (centres undefined) | > 48.1
34 | CCOc1ccc(C(=O)N2CCN(c3cccc(Cl)c3)CC2)cc1 | 14.3 (≈ 41.5 µM)
35 | COC(=O)NC(=C(Cl)Cl)P(=O)(c1ccccc1)c1ccccc1 | > 55.5
36 | CC(C)c1ccc(OCC(O)CN2CCCC2)cc1.Cl (centres undefined) | 43.8
37 | O=C(OCc1csc(-c2ccccc2)n1)c1ccc(O)cc1 | < 0.7
38 | O=C(Cc1ccccc1)Nc1c(Cl)ccc2nsnc12 | 4.9 (≈ 16.1 µM)
39 | COc1ccc2c(c1)[nH]c1c(N3CCSCC3)ncnc12 | 11.5 (≈ 38.3 µM)
40 | Cc1nc(Cl)c(C#N)c2c1CCCC2 | 17.5 (≈ 84.7 µM)

Row | Compound | solubility kinetic [µg/mL]
41 | CCOC(=O)C1CCCN(Cc2ccc(-c3ccccc3)cc2)C1 (centres undefined) | 11.9 (≈ 36.8 µM)
42 | O=C(NCCCN1CCOCC1)C(=O)NCc1ccc(Cl)cc1 | > 51
43 | COc1ccccc1-n1ccnc(SCC(=O)NC2CCCC2)c1=O | > 53.9
44 | Cc1c(NS(=O)(=O)c2cc(C(=O)NCc3cccnc3)ccc2Cl)c(=O)n(-c2ccccc2)n1C | > 76.8
45 | O=C(COC(=O)c1cnccn1)NC1CCCc2ccccc21 (centres undefined) | > 46.7
46 | Nc1ccc(C(=O)Nc2cccc(NC(=O)c3ccc(N)cc3)c2)cc1 | 34.8 (≈ 100 µM)
47 | COc1ccc(CNC(=O)N2CCc3ccccc3C2)cc1 | > 44.5
48 | CN(CC(=O)Nc1ccccc1Cl)C(=O)COC(=O)c1ccc([N+](=O)[O-])s1 | > 61.8
49 | CCO/C(C)=C1/SC(=S)NC1=O | > 30.5
50 | CCCOc1ccc(-c2nc(N3CCN(C)CC3)c3ccccc3n2)cc1 | 14.5 (≈ 40 µM)
51 | CCn1c(NC(=O)C(C)C)c(-c2ccccc2)c(=O)c2ccccc21 | 30.9 (≈ 92.4 µM)
52 | O=C(NOCc1ccccc1)c1ccc(Cl)cc1Cl | 36.4 (≈ 123 µM)
53 | Cn1c(=O)c2c(ncn2CCC(=O)N/N=C/c2ccncc2)n(C)c1=O | > 53.3
54 | CC(C)CCC1(C)NC(=O)N(CC(=O)NCC(=O)Nc2ccc(F)c(F)c2F)C1=O (centres undefined) | > 64.3
55 | Nc1ccc2c(c1)OC1(CCCCC1)O2 | 19.1 (≈ 93.1 µM)
56 | Cn1cccc1C(=O)NCCc1ccc(Cl)cc1 | 36.1 (≈ 137 µM)
57 | Cc1cc2c(sc3c(C)ccc(C)c32)c(C)n1.Cl | < 0.6
58 | O=C1CCC/C1=C\Nc1ccc(Cl)c([N+](=O)[O-])c1 | 7.2 (≈ 27 µM)
59 | O=C(NNC(=S)NC1CC2C=CC1C2)c1cccnc1 (centres undefined) | > 43.3
